These results are taken from US12077503B2, “Substituted cyclic amides and their use as herbicides” (FMC CORPORATION, priority 2015, dated 2024).

What all share (type): in vivo
One test relates to Kochia (Kochia scoparia). The test is described as follows: Test A preemergence. Conditions: Bassia scoparia, pre-emergence, 240 h; for pest or weed control at 125 g/ha: 125 g ai/ha, preemergence, 0 to 100 scale where 0 is no effect and 100 is complete control, read-out: Kochia plant response rating; for pest or weed control at 500 g/ha: 500 g ai/ha, Preemergence, visual injury vs untreated controls after approximately 10 d, read-out: Kochia plant response rating (0 to 100 scale where 0 is no effect and 100 is complete control). In a few lines: (§1)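 Seeded soil received test chemicals as a preemergence directed spray, and seedlings at one to two leaves, 2–10 cm tall, received them postemergence, in a non-phytotoxic, surfactant-containing solvent mixture. Pots were held in a greenhouse for approximately 10 d, then rated for injury from 0, no effect, to 100, complete control.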

For test [1], the system named is barnyardgrass (Echinochloa crus-galli). Briefly: Test A preemergence. The settings on record: Echinochloa crus-galli, pre-emergence, 240 h; for pest or weed control at 125 g/ha: 125 g ai/ha, preemergence, 0 to 100 scale where 0 is no effect and 100 is complete control, read-out: Barnyardgrass plant response rating; for pest or weed control at 500 g/ha: 500 g ai/ha, Preemergence, visual injury vs untreated controls after approximately 10 d, read-out: Barnyardgrass plant response rating (0 to 100 scale where 0 is no effect and 100 is complete control). In short, it runs like this:
as §1

For test [2], the system named is giant foxtail (Setaria faberii). The test is described as follows: Test A preemergence. Conditions: Setaria faberi, pre-emergence, 240 h; for pest or weed control at 125 g/ha: 125 g ai/ha, preemergence, 0 to 100 scale where 0 is no effect and 100 is complete control, read-out: Foxtail, Giant plant response rating; for pest or weed control at 500 g/ha: 500 g ai/ha, Preemergence, visual injury vs untreated controls after approximately 10 d, read-out: Foxtail, Giant plant response rating (0 to 100 scale where 0 is no effect and 100 is complete control). In short, it runs like this: as §1

The subject of test [3] is pigweed (Amaranthus retroflexus). The test is described as follows: Test A preemergence. Conditions: Amaranthus retroflexus, pre-emergence, 240 h; for pest or weed control at 125 g/ha: 125 g ai/ha, preemergence, 0 to 100 scale where 0 is no effect and 100 is complete control, read-out: Pigweed plant response rating; for pest or weed control at 500 g/ha: 500 g ai/ha, Preemergence, visual injury vs untreated controls after approximately 10 d, read-out: Pigweed plant response rating (0 to 100 scale where 0 is no effect and 100 is complete control).

Test [4] has as its system ragweed (common ragweed, Ambrosia elatior). The test is described as follows: Test A preemergence. Conditions: Ambrosia artemisiifolia, pre-emergence, 240 h; for pest or weed control at 125 g/ha: 125 g ai/ha, preemergence, 0 to 100 scale where 0 is no effect and 100 is complete control, read-out: Ragweed plant response rating; for pest or weed control at 500 g/ha: 500 g ai/ha, Preemergence, visual injury vs untreated controls after approximately 10 d, read-out: Ragweed plant response rating (0 to 100 scale where 0 is no effect and 100 is complete control). In short, it runs like this: as §1

Test [5] concerns ryegrass, Italian (Italian ryegrass, Lolium multiflorum). Briefly: Test A preemergence. The settings on record: Lolium multiflorum, pre-emergence, 240 h; for pest or weed control at 125 g/ha: 125 g ai/ha, preemergence, 0 to 100 scale where 0 is no effect and 100 is complete control, read-out: Ryegrass, Italian plant response rating; for pest or weed control at 500 g/ha: 500 g ai/ha, Preemergence, visual injury vs untreated controls after approximately 10 d, read-out: Ryegrass, Italian plant response rating (0 to 100 scale where 0 is no effect and 100 is complete control). In short, it runs like this: as §1

The test system of test [6] is Galium (catchweed bedstraw, Galium aparine). Briefly: Test A postemergence. The settings on record: Galium, post-emergence, 240 h, 125 g ai/ha, postemergence, visual injury rating after approximately 10 d; read-out: Galium plant response rating (0 to 100 scale, 0 no effect, 100 complete control). In a few lines: as §1
Test [7] deals with barnyardgrass (Echinochloa crus-galli). The test is described as follows: Test A postemergence. The settings on record: Echinochloa crus-galli, post-emergence, 240 h, 125 g ai/ha, postemergence, visual injury rating after approximately 10 d; read-out: Barnyardgrass plant response rating (0 to 100 scale, 0 no effect, 100 complete control). In short, it runs like this:
as §1

Test [8] concerns blackgrass (Alopecurus myosuroides). Briefly: Test A postemergence. Conditions: Alopecurus myosuroides, post-emergence, 240 h, 125 g ai/ha, postemergence, visual injury rating after approximately 10 d; read-out: Blackgrass plant response rating (0 to 100 scale, 0 no effect, 100 complete control). In a few lines: as §1
The subject of another test is corn (Zea mays). The test is described as follows: Test A postemergence. Conditions: Zea mays, post-emergence, 240 h, 125 g ai/ha, postemergence, visual injury rating after approximately 10 d; read-out: Corn plant response rating (0 to 100 scale, 0 no effect, 100 complete control). In short, it runs like this:
as §1

Test [9] relates to giant foxtail (Setaria faberii). Briefly: Test A postemergence. Conditions: Setaria faberi, post-emergence, 240 h, 125 g ai/ha, postemergence, visual injury rating after approximately 10 d; read-out: Foxtail, Giant plant response rating (0 to 100 scale, 0 no effect, 100 complete control). In short, it runs like this: as §1
Test [10] relates to pigweed (Amaranthus retroflexus). The test is described as follows: Test A postemergence. Conditions: Amaranthus retroflexus, post-emergence, 240 h, 125 g ai/ha, postemergence, visual injury rating after approximately 10 d; read-out: Pigweed plant response rating (0 to 100 scale, 0 no effect, 100 complete control). In a few lines:
as §1

Test [11] has as its system ragweed (common ragweed, Ambrosia elatior). The test is described as follows: Test A postemergence. The settings on record: Ambrosia artemisiifolia, post-emergence, 240 h, 125 g ai/ha, postemergence, visual injury rating after approximately 10 d; read-out: Ragweed plant response rating (0 to 100 scale, 0 no effect, 100 complete control). In a few lines:
as §1

For test [12], the system named is ryegrass, Italian (Italian ryegrass, Lolium multiflorum). The test is described as follows: Test A postemergence. Conditions: Lolium multiflorum, post-emergence, 240 h, 125 g ai/ha, postemergence, visual injury rating after approximately 10 d; read-out: Ryegrass, Italian plant response rating (0 to 100 scale, 0 no effect, 100 complete control). In short, it runs like this:
as §1

The test system of test [13] is wheat (Triticum aestivum). Briefly: Test A postemergence. The settings on record: Triticum aestivum, post-emergence, 240 h, 125 g ai/ha, postemergence, visual injury rating after approximately 10 d; read-out: Wheat plant response rating (0 to 100 scale, 0 no effect, 100 complete control). In short, it runs like this:
as §1

Regarding `COc1cc(C(F)(F)F)ccc1[C@H]1CN(C)C(=O)[C@@H]1C(=O)Nc1ccccc1SC` [Compound 860], the pest or weed control at 125 g/ha was 0% in the test on Kochia (Kochia scoparia); 90% in test [1]; 90% in test [2]; 60% in test [3]; 0% in test [4]; 20% in test [5]. Besides, the pest or weed control at 125 g/ha was 20% in [6]; 30% in test [7]; 0% in test [8]; 60% in test [9]; 0% in test [10]; 0% in [11]. For the same compound, the pest or weed control at 125 g/ha in test [12] worked out at 0%. Further, the pest or weed control at 500 g/ha in the test on Kochia (Kochia scoparia) amounted to 60%; in [1], 90%; in [2] it was 90%; in [3], 90%; in test [4] it was 50%; in test [5], 40%. Besides, the plant injury at 125 g/ha in the test on corn (Zea mays) was found to be 0%; in [13] it was 20%.

In the case of `Cc1c(F)cccc1NC(=O)[C@H]1C(=O)N(C)C[C@@H]1c1cccc(COC(F)F)c1` [Compound 874], the pest or weed control at 125 g/ha with Kochia (Kochia scoparia) is 60%; in [1] it was 90%; in test [2], 90%; in [3] it was 20%; in test [4] it was 20%; in test [5], 40%. In addition, the pest or weed control at 125 g/ha in [6] came to 20%; in test [7], 90%; in test [8] it was 60%; in test [9], 90%; in test [10] it was 0%; in [11], 20%. The pest or weed control at 125 g/ha in test [12] was 20%. For the same compound, the pest or weed control at 500 g/ha was 90% in the test with Kochia (Kochia scoparia); 100% in [1]; 100% in test [2]; 30% in test [3]; 60% in test [4]; 50% in test [5]. Also, the plant injury at 125 g/ha amounted to 50% in the test with corn (Zea mays) and 20% in test [13].
